In patent US20250288575A1, “EYE DROP COMPOSITION FOR PREVENTION OR TREATMENT OF OPHTHALMIC DISEASES AND PREPARATION METHOD THEREFOR” (OCUMENSION THERAPEUTICS (SUZHOU) CO., LTD., priority 2021, published 2025):

Assay: Antimicrobial efficacy testing (AET) of atropine sulfate eye drops (0.01%) with different BAK concentrations
Experimental: The concentration of benzalkonium chloride (BAK) in atropine sulfate eye drops was verified via antimicrobial efficacy testing (AET). The lyophilized preparation was reconstituted with 8 mL of reconstituted diluent including BAK at concentrations of 100 ppm, 80 ppm, 50 ppm, 25 ppm, or 0 ppm to obtain atropine sulfate eye drops (0.01%) including benzalkonium chloride at different concentrations.

[1] = BAK 0 ppm in atropine sulfate eye drops (0.01%)
[2] = BAK 25 ppm in atropine sulfate eye drops (0.01%)
[3] = BAK 50 ppm in atropine sulfate eye drops (0.01%)
[4] = BAK 80 ppm in atropine sulfate eye drops (0.01%)
[5] = BAK 100 ppm in atropine sulfate eye drops (0.01%)

benzalkonium chloride [BAK]
AET, Chinese Pharmacopoeia Method, Criteria A&B [1]: Fail
AET, European Pharmacopoeia Method, Criteria A&B [1]: Fail
AET, United States Pharmacopeia Method [1]: Fail
AET, Chinese Pharmacopoeia Method, Criteria A&B [2]: Pass
AET, European Pharmacopoeia Method, Criteria A&B [2]: Pass
AET, United States Pharmacopeia Method [2]: Pass
AET, Chinese Pharmacopoeia Method, Criteria A&B [3]: Pass
AET, European Pharmacopoeia Method, Criteria A&B [3]: Pass
AET, United States Pharmacopeia Method [3]: Pass
AET, Chinese Pharmacopoeia Method, Criteria A&B [4]: Pass
AET, European Pharmacopoeia Method, Criteria A&B [4]: Pass
AET, United States Pharmacopeia Method [4]: Pass
AET, Chinese Pharmacopoeia Method, Criteria A&B [5]: Pass
AET, European Pharmacopoeia Method, Criteria A&B [5]: Pass
AET, United States Pharmacopeia Method [5]: Pass
results of the antibacterial efficacy testing (all tested BAK concentrations (100, 80, 50, 25 ppm) except 0 ppm): met the criteria
antibacterial efficacy criteria "A", Chinese Pharmacopoeia, during long-term storage (benzalkonium chloride concentration greater than 70 ppm): criteria requirements of antibacterial efficacy “A” were met
